Molecular target: Cytochrome P450 3A4 (Homo sapiens, UniProt P08684)
Assay: Inhibition of cytochrome P450 3A4

Chain of Cytochrome P450 3A4 (P08684 whole entry): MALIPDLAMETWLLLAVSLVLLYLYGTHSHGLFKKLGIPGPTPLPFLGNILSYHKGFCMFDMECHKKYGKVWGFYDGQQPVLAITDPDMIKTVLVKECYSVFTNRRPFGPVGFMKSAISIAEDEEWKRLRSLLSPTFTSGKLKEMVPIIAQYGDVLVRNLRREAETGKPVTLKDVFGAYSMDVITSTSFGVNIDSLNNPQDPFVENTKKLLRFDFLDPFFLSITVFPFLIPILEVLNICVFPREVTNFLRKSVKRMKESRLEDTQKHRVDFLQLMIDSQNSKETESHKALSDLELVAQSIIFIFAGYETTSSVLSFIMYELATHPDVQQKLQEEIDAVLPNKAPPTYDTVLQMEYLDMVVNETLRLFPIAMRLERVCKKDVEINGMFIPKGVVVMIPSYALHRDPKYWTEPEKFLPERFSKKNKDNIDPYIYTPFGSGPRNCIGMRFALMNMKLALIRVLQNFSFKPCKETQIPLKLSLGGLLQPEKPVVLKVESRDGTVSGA

Row | Inhibitory index | SMILES
1 | 0.8 | CN1CCC(c2c[nH]c3ccc(NC(=O)c4ccc(F)cc4)cc23)CC1
2 | 0.86 | COc1ccccc1CN(CC(Cc1c[nH]c2ccccc12)NC(=O)CN1CCC(N2CCCCC2)CC1)C(C)=O (configuration not stated)
3 | 0.88 | O[C@@H](COc1cccc2ncccc12)CN1CCN([C@@H]2c3ccccc3[C@@H]3[C@H](c4ccccc42)C3(F)F)CC1
4 | 0.88 | OC(COc1cccc2ncccc12)CN1CCN(C2c3ccccc3C3CC3c3ccccc32)CC1 (configuration not stated)
5 | 0.39 | CC(C)(C)c1cc(CC2SCNC2=O)cc(C(C)(C)C)c1O (configuration not stated) [TAZOFELONE]

Row | SMILES | Inhibitory index
6 | COCCCOc1ccnc(C[S+]([O-])c2nc3ccccc3[nH]2)c1C (configuration not stated) [RABEPRAZOLE] | 0.82
7 | CN1[C@@H]2CC[C@H]1C[C@@H](NC(=O)c1cc(Cl)cc3c1OC(C)(C)C3)C2 [ZATOSETRON] | 0.8
